Laboratory results from patent publication US20260092071A1, “COMPOUNDS AND COMPOSITIONS AS SMARCA2/4 DEGRADERS AND USES THEREOF” (REGENTS OF THE UNIVERSITY OF MICHIGAN, priority 2022, published 2026).
Like-named read-outs stand apart in the source and are kept apart here.

Columns and labels:
SMARCA2 = SMARCA2 (Homo sapiens, UniProt P51531); experiment: HiBit assay in engineered HT1080 CRISPR knock-in cell, 6 hrs (B series), SMARCA2; assay type: cell-based; details: 6 hrs incubation; for DC50: read-out: SMARC A2 HT1080 HiBit DC50; for Dmax: HT-1080, HT1080 CRISPR knock-in cells, read-out: SMARC A2 HT1080 HiBit Dmax (%)
Method in brief: (§1)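 Engineered HT1080 knock-in cells, 2000 cells/well, 6 hrs compound exposure, 37° C/5% CO2, 0.1% DMSO final. Lytic detection: LgBiT 1:100 plus HiBiT substrate 1:50 in lytic buffer, 10 min shake at RT, luminescence read.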

SMARCA4 = SMARCA4 (Homo sapiens, UniProt P51532); experiment: HiBit assay in engineered HT1080 CRISPR knock-in cell, 6 hrs (B series), SMARCA4; assay type: cell-based; details: for DC50: read-out: SMARC A4 HT1080 HiBit DC50
Method in brief: as §1

[1] = HT1080 CRISPR knock-in cells, 6 hrs incubation
[2] = HT-1080, HT1080 CRISPR knock-in cells, 6 hrs incubation, read-out: SMARC A4 HT1080 HiBit Dmax(%)

SMARCA4, sequence (P51532 whole entry): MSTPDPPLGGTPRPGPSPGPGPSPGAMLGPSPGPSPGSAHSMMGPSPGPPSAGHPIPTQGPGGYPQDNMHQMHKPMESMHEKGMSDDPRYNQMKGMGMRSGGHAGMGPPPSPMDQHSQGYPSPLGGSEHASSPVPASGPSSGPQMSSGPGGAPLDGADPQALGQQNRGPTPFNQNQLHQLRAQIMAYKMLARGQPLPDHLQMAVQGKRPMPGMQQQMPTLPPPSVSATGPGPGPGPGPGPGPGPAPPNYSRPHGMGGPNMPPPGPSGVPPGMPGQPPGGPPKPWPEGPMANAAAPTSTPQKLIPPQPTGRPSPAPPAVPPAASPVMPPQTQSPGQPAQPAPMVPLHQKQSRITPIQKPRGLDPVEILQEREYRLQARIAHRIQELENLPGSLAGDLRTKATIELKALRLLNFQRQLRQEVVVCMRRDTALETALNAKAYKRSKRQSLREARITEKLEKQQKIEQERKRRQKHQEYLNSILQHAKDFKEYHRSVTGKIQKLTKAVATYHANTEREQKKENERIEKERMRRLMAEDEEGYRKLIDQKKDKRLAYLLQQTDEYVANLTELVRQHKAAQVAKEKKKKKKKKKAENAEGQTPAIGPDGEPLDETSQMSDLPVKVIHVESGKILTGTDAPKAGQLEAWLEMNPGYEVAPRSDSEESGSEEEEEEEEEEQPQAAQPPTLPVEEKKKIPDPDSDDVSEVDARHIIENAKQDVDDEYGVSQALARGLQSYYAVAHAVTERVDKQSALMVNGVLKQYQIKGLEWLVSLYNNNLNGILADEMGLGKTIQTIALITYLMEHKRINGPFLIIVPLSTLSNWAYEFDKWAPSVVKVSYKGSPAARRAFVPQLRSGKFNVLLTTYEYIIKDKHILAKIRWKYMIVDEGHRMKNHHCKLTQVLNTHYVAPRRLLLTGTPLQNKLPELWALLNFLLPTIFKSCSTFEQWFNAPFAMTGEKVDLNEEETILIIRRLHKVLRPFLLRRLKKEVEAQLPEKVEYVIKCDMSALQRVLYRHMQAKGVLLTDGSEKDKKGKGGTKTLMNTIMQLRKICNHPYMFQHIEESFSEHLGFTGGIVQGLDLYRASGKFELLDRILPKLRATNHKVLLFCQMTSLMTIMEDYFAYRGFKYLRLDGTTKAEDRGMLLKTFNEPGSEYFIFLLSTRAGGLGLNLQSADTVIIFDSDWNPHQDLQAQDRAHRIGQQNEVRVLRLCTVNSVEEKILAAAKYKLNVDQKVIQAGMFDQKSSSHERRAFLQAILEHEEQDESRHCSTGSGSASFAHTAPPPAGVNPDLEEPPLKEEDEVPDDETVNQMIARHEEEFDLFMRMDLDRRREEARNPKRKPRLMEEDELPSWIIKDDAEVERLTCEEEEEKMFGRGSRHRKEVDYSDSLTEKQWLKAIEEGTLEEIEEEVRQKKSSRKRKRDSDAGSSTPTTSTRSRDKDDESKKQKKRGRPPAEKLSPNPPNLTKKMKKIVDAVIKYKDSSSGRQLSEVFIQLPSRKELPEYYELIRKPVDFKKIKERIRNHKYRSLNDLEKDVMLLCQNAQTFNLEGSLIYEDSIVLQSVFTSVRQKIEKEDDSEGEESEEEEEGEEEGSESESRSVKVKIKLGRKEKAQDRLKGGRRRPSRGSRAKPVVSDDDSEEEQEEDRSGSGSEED
SMARCA2, sequence (P51531 whole entry): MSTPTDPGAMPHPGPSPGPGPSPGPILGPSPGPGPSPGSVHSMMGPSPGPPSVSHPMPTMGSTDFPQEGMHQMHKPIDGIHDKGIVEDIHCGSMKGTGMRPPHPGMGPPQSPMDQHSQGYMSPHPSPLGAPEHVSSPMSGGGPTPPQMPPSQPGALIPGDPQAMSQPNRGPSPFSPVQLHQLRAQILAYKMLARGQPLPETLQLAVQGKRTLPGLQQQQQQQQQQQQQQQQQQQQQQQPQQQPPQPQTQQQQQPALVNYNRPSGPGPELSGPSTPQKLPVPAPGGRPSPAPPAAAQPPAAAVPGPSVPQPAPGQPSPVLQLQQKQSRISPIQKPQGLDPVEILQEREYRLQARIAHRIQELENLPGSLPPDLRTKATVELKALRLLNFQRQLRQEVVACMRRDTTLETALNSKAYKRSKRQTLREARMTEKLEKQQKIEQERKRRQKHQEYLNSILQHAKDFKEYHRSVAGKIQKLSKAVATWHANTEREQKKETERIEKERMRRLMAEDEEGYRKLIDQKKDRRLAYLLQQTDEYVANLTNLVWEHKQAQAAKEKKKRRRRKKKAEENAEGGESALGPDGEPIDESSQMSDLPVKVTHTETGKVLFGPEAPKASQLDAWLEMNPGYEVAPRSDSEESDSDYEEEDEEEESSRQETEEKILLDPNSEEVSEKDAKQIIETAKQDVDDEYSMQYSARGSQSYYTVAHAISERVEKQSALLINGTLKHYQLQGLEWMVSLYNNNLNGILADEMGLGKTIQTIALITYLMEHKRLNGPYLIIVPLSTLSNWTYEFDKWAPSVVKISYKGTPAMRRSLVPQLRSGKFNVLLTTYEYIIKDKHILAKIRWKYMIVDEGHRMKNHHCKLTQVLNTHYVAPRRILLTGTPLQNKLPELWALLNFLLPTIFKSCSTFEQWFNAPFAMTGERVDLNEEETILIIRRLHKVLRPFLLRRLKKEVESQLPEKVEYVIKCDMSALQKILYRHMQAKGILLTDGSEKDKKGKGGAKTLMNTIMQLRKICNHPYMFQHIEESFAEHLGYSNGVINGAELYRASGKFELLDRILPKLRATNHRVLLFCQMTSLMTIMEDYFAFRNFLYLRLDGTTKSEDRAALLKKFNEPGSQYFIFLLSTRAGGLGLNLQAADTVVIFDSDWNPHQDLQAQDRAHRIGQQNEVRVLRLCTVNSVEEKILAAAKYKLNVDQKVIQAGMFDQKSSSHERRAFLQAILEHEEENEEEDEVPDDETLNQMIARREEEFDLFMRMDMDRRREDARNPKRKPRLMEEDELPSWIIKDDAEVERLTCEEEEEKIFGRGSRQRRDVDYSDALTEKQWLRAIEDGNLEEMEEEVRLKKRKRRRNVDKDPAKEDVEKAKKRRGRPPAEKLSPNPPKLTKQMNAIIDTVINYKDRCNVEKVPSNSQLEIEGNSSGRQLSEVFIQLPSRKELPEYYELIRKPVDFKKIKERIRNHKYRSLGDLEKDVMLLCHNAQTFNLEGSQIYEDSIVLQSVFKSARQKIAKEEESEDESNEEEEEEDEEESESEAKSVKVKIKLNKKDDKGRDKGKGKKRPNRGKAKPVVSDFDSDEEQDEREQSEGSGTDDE

SMILES	DC50 (SMARCA2; HT1080 CRISPR knock-in cells)	Dmax (SMARCA2)	DC50 (SMARCA4; [1])	Dmax (SMARCA4; [2])	SMARC A2 HT1080 HiBit Dmax (%) (SMARCA2; HT1080 CRISPR knock-in cells)	SMARC A4 HT1080 HiBit Dmax(%) (SMARCA4; [1])	Dmax (SMARCA4; HT-1080, read-out: SMARC A4 HT1080 HiBit Dmax(%), HT1080 CRISPR knock-in cells, 6 hrs incubation)
Cc1ncsc1-c1ccc([C@H](C)NC(=O)[C@@H]2C[C@@H](O)CN2C(=O)[C@@H](n2cc(CN3CCC(c4ccc5c(c4)-n4c(nc(=O)c6c(Cl)cccc64)C5(C)C)CC3)nn2)C(C)(C)C)cc1 [Compound B69, (2S,4R)-1-((S)-2-(4-((4-(4-chloro-7,7-dimethyl-5-oxo-5,7-dihydroindolo[1,2-a]quinazolin-10-yl)piperidin-1-yl)methyl)-1H-1,2,3-triazol-1-yl)-3,3-dimethylbutanoyl)-4-hydroxy-N-((S)-1-(4-(4-methylthiazol-5-yl)phenyl)ethyl)pyrrolidine-2-carboxamide]	< 100 nM	> 90%	100 to 500 nM	< 50%			
Cc1ncsc1-c1ccc([C@H](C)NC(=O)[C@@H]2C[C@@H](O)CN2C(=O)[C@@H](NC(=O)[C@H]2CC[C@H](CN3CCC(c4ccc5c(c4)-n4c(nc(=O)c6c(Br)cccc64)C5(C)C)CC3)CC2)C(C)(C)C)cc1 [Compound B70, (2S,4R)-1-((S)-2-((11,4S)-4-((4-(4-bromo-7,7-dimethyl-5-oxo-5,7-dihydroindolo[1,2-a]quinazolin-10-yl)piperidin-1-yl)methyl)cyclohexane-1-carboxamido)-3,3-dimethylbutanoyl)-4-hydroxy-N-((S)-1-(4-(4-methylthiazol-5-yl)phenyl)ethyl)pyrrolidine-2-carboxamide]	< 100 nM	> 90%	< 100 nM	< 50%			
Cc1ncsc1-c1ccc([C@H](C)NC(=O)[C@@H]2C[C@@H](O)CN2C(=O)[C@@H](c2cc(OCCCn3cc(-c4ccc5c(c4)C(C)(C)c4nc(=O)c6c(Cl)cccc6n4-5)cn3)no2)C(C)C)cc1 [Compound B71, (2S,4R)-1-((R)-2-(3-(3-(4-(4-chloro-7,7-dimethyl-5-oxo-5,7-dihydroindolo[1,2-a]quinazolin-9-yl)-1H-pyrazol-1-yl)propoxy)isoxazol-5-yl)-3-methylbutanoyl)-4-hydroxy-N-((S)-1-(4-(4-methylthiazol-5-yl)phenyl)ethyl)pyrrolidine-2-carboxamide]	100 to 500 nM	50 to 69%	> 1000 nM	< 50%			
Cc1ncsc1-c1ccc([C@H](C)NC(=O)[C@@H]2C[C@@H](O)CN2C(=O)[C@@H](c2cc(OCCCn3cc(-c4ccc5c(c4)-n4c(nc(=O)c6c(Cl)cccc64)C5(C)C)cn3)no2)C(C)C)cc1 [Compound B72, (2S,4R)-1-((R)-2-(3-(3-(4-(4-chloro-7,7-dimethyl-5-oxo-5,7-dihydroindolo[1,2-a]quinazolin-10-yl)-1H-pyrazol-1-yl)propoxy)isoxazol-5-yl)-3-methylbutanoyl)-4-hydroxy-N-((S)-1-(4-(4-methylthiazol-5-yl)phenyl)ethyl)pyrrolidine-2-carboxamide]	< 100 nM	50 to 69%	< 100 nM	< 50%			
Cc1ncsc1-c1ccc([C@H](C)NC(=O)[C@@H]2C[C@@H](O)CN2C(=O)[C@H](C(C)C)n2cc(CCCCN3CCC(c4ccc5c(c4)-n4c(nc(=O)c6c(Cl)cccc64)C5(C)C)CC3)nn2)cc1 [Compound B73, (2S,4R)-1-((S)-2-(4-(4-(4-(4-chloro-7,7-dimethyl-5-oxo-5,7-dihydroindolo[1,2-a]quinazolin-10-yl)piperidin-1-yl)butyl)-1H-1,2,3-triazol-1-yl)-3-methylbutanoyl)-4-hydroxy-N-((S)-1-(4-(4-methylthiazol-5-yl)phenyl)ethyl)pyrrolidine-2-carboxamide]	< 100 nM	> 90%	100 to 500 nM	70 to 90%			
CC(C)C(C(=O)N1C[C@H](O)C[C@H]1C(=O)N[C@@H](C)c1ccc(-c2ncnn2C)cc1)c1cc(OCCN2CCC(c3ccc4c(c3)C(C)(C)c3nc(=O)c5c(Cl)cccc5n3-4)CC2)no1 (stereo partly drawn) [Compound B74, (2S,4R)-1-(2-(3-(2-(4-(4-chloro-7,7-dimethyl-5-oxo-5,7-dihydroindolo[1,2-a]quinazolin-9-yl)piperidin-1-yl)ethoxy)isoxazol-5-yl)-3-methylbutanoyl)-4-hydroxy-N-((S)-1-(4-(1-methyl-1H-1,2,4-triazol-5-yl)phenyl)ethyl)pyrrolidine-2-carboxamide]	100 to 500 nM	< 50%	> 1000 nM	< 50%			

More lines, now with the values ahead:

DC50 (SMARCA2; HT1080 CRISPR knock-in cells)	Dmax (SMARCA2)	DC50 (SMARCA4; [1])	Dmax (SMARCA4; [2])	SMARC A2 HT1080 HiBit Dmax (%) (SMARCA2; HT1080 CRISPR knock-in cells)	SMARC A4 HT1080 HiBit Dmax(%) (SMARCA4; [1])	Dmax (SMARCA4; HT-1080, read-out: SMARC A4 HT1080 HiBit Dmax(%), HT1080 CRISPR knock-in cells, 6 hrs incubation)	SMILES
100 to 500 nM		100 to 500 nM		B (B (70-90% degradation))	D (D (<50% degradation))		CC(C)C(C(=O)N1C[C@H](O)C[C@H]1C(=O)N[C@@H](C)c1ccc(-c2ncnn2C)cc1)c1cc(OCCN2CCC(c3ccc4c(c3)C(C)(C)c3nc(=O)c5c(Cl)cccc5n3-4)CC2)no1 (stereo partly drawn) [Compound B75, (2S,4R)-1-(2-(3-(2-(4-(4-chloro-7,7-dimethyl-5-oxo-5,7-dihydroindolo[1,2-a]quinazolin-9-yl)piperidin-1-yl)ethoxy)isoxazol-5-yl)-3-methylbutanoyl)-4-hydroxy-N-((S)-1-(4-(1-methyl-1H-1,2,4-triazol-5-yl)phenyl)ethyl)pyrrolidine-2-carboxamide]
100 to 500 nM	70 to 90%	100 to 500 nM	< 50%				Cc1ncsc1-c1ccc([C@H](C)NC(=O)[C@@H]2C[C@@H](O)CN2C(=O)[C@@H](NC(=O)C2CCC(CN3CCC(c4ccc5c(c4)C(C)(C(F)(F)F)c4nc(=O)c6c(Cl)cccc6n4-5)CC3)CC2)C(C)(C)C)cc1 (stereo partly drawn) [Compound B76, (2S,4R)-1-((2S)-2-((1r,4S)-4-((4-(4-chloro-7-methyl-5-oxo-7-(trifluoromethyl)-5,7-dihydroindolo[1,2-a]quinazolin-9-yl)piperidin-1-yl)methyl)cyclohexane-1-carboxamido)-3,3-dimethylbutanoyl)-4-hydroxy-N-((S)-1-(4-(4-methylthiazol-5-yl)phenyl)ethyl)pyrrolidine-2-carboxamide]
< 100 nM	> 90%	100 to 500 nM	50 to 69%				Cc1ncsc1-c1ccc([C@H](C)NC(=O)[C@@H]2C[C@@H](O)CN2C(=O)[C@@H](NC(=O)C23CCC(CN4CCC(c5ccc6c(c5)-n5c(nc(=O)c7c(Cl)cccc75)C6(C)C)CC4)(CC2)C3)C(C)(C)C)cc1 [Compound B77, (2S,4R)-1-((S)-2-(4-((4-(4-chloro-7,7-dimethyl-5-oxo-5,7-dihydroindolo[1,2-a]quinazolin-10-yl)piperidin-1-yl)methyl)bicyclo[2.2.1]heptane-1-carboxamido)-3,3-dimethylbutanoyl)-4-hydroxy-N-((S)-1-(4-(4-methylthiazol-5-yl)phenyl)ethyl)pyrrolidine-2-carboxamide]
< 100 nM	> 90%	< 100 nM				> 90%	Cc1ncsc1-c1ccc([C@H](C)NC(=O)[C@@H]2C[C@@H](O)CN2C(=O)[C@H](C(C)C)n2cc([C@H]3CC[C@H](CN4CCC(c5ccc6c(c5)C(C)(C)c5nc(=O)c7c(Cl)cccc7n5-6)CC4)CC3)nn2)cc1 [Compound B78, (2S,4R)-1-((S)-2-(4-((1r,4S)-4-((4-(4-chloro-7,7-dimethyl-5-oxo-5,7-dihydroindolo[1,2-a]quinazolin-9-yl)piperidin-1-yl)methyl)cyclohexyl)-1H-1,2,3-triazol-1-yl)-3-methylbutanoyl)-4-hydroxy-N—((S)-1-(4-(4-methylthiazol-5-yl)phenyl)ethyl)pyrrolidine-2-carboxamide]
< 100 nM	70 to 90%	100 to 500 nM	< 50%				C=C[C@H](NC(=O)[C@@H]1C[C@@H](O)CN1C(=O)[C@@H](NC(=O)[C@H]1CC[C@H](CN2CCC(c3ccc4c(c3)C(C)(C)c3nc(=O)c5c(Cl)cccc5n3-4)CC2)CC1)C(C)(C)C)c1ccc(-c2scnc2C)cc1 [Compound B79, (2S,4R)-1-((S)-2-((11,4S)-4-((4-(4-chloro-7,7-dimethyl-5-oxo-5,7-dihydroindolo[1,2-a]quinazolin-9-yl)piperidin-1-yl)methyl)cyclohexane-1-carboxamido)-3,3-dimethylbutanoyl)-4-hydroxy-N-((S)-1-(4-(4-methylthiazol-5-yl)phenyl)allyl)pyrrolidine-2-carboxamide]
< 100 nM	> 90%	< 100 nM	> 90%				Cc1ncsc1-c1ccc(CNC(=O)[C@@H]2C[C@@H](O)CN2C(=O)[C@@H](NC(=O)C2(F)CC2)C(C)(C)C)c(OCC2CCC(N3CCC(c4ccc5c(c4)-n4c(nc(=O)c6c(Cl)cccc64)C5(C)C)CC3)CC2)c1 (stereo partly drawn) [Compound B80, (2S,4R)-N-(2-((4-(4-(4-chloro-7,7-dimethyl-5-oxo-5,7-dihydroindolo[1,2-a]quinazolin-10-yl)piperidin-1-yl)cyclohexyl)methoxy)-4-(4-methylthiazol-5-yl)benzyl)-1-((S)-2-(1-fluorocyclopropane-1-carboxamido)-3,3-dimethylbutanoyl)-4-hydroxypyrrolidine-2-carboxamide]
